Publication PMC7380166, “How to Study the Metabolism of New Psychoactive Substances for the Purpose of Toxicological Screenings—A Follow-Up Study Comparing Pooled Human Liver S9, HepaRG Cells, and Zebrafish Larvae” (Frontiers in Chemistry, 2020)

Legend:
[1] = [2019], cited from earlier work
[2] = tested on: zebrafish larvae; test: In vivo maximum-tolerated concentration (MTC) study in zebrafish larvae; parameters: species or system zebrafish (Danio rerio); details: for Survival rate: 24-h treatment, fifteen larvae
Outline: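 AB wild-type larvae, one per well in Danieau's medium (pH 7.1–7.3) at 28°C, exposed from 4 dpf for 24 h to 0, 0.01, 0.1, 1, 10, 50 or 100 μM with 1% DMSO.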

[3] = tested on: monooxygenases; test: Monooxygenases activity screening, summary over isozymes; assay type: in vitro ADME, human; details: single-enzyme incubations, 25 μM
Method: According to an established protocol (Wagmann et al., [2016]), the final volume per reaction tube was 50 μl with a final 4F-MDMB-BINACA concentration of 25 μM and enzyme concentrations of 50 pmol/ml for CYP1A2, CYP2A6, CYP2B6, CYP2C8, CYP2C9, CYP2C19, CYP2D6, CYP2E1, CYP3A4, and CYP3A5, respectively, or 0.25 mg protein/ml for FMO3. Furthermore, the reaction mixture contained 90 mM phosphate buffer (pH 7.4), superoxide dismutase (200 U/ml), isocitrate (5 mM), MgCl2 (5 mM), isocitrate dehydrogenase (0.5 U/ml), and NADP^+ (1.2 mM). The phosphate buffer was replaced with Tris buffer (90 mM) for incubations with CYP2A6 and CYP2C9 according to the manufacturer's recommendation. All incubations were performed at 37°C for 30 min and terminated by adding 50 μl of ice-cold acetonitrile. Afterwards, the mixtures were centrifuged at 18,407 × g for 5 min, 70 μl of the supernatants was transferred into autosampler vials, and 1 μl was injected onto the LC-HRMS/MS system. Positive control incubations were performed with pHLM (1 mg microsomal protein/ml), and negative controls without enzyme were prepared to identify non-metabolically formed compounds. All incubations were done in duplicate.

[4] = molecular target: T1, hCES1c (Homo sapiens, UniProt P23141); test: Esterases activity screening, hCES1c; assay type: in vitro ADME; parameters: key: +, detected; –: −, not detected; details: 100 μM 4F-MDMB-BINACA, 0.2 mg protein/ml, duplicate
T1 construct: purchased Corning
T1 sequence (P23141 18-566 isoform P23141-3 limits assumed): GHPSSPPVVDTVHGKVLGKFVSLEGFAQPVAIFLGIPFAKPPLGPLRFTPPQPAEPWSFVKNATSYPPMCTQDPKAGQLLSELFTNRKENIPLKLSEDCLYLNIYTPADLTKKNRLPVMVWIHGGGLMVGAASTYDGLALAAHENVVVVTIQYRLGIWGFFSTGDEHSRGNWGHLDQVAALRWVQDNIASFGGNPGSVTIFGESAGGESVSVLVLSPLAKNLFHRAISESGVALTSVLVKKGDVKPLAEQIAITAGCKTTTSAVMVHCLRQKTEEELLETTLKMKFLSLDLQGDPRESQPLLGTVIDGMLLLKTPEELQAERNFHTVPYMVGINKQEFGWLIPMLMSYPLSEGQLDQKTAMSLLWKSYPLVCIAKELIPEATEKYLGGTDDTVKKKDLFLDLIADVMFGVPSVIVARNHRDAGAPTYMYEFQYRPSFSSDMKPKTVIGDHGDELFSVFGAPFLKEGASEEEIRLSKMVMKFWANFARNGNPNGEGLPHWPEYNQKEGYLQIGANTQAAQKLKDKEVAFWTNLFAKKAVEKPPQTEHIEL
Method: (§1) Experiments were performed in accordance with a previous study (Meyer et al., [2015]) with minor modifications. The final volume per reaction tube was 100 μl with a final 4F-MDMB-BINACA concentration of 100 μM and enzyme concentration of 0.2 mg protein/ml for hCES1b, hCES1c, and hCES2. Incubations with pHLM and pHLS9 (0.2 mg protein/ml, each) were performed in a similar manner. Additionally, incubations with human plasma (50 μl pooled human plasma, 40 μl phosphate buffer, and 10 μl substrate) were performed. The reactions were started by adding the enzyme-containing preparation and terminated with an equal volume of ice-cold acetonitrile containing diazepam-d5 (100 μM) as an internal standard. Only plasma incubations were terminated by addition of a three-fold volume of ice-cold acetonitrile. The reaction mixtures were centrifuged at 18,407 × g for 15 min, and then supernatants were transferred to autosampler vials, and 5 μl was injected onto the LC-HRMS/MS system. Negative control incubations without enzyme were prepared to identify non-metabolically formed compounds. All incubations were done in duplicate.

[5] = molecular target: T2, hCES1b (Homo sapiens, UniProt P23141); test: Esterases activity screening, hCES1b; assay type: in vitro ADME; parameters: key: +, detected; –, not detected; details: 100 μM 4F-MDMB-BINACA, 0.2 mg protein/ml, duplicate
T2 construct: purchased Corning
T2 sequence (P23141 18-567): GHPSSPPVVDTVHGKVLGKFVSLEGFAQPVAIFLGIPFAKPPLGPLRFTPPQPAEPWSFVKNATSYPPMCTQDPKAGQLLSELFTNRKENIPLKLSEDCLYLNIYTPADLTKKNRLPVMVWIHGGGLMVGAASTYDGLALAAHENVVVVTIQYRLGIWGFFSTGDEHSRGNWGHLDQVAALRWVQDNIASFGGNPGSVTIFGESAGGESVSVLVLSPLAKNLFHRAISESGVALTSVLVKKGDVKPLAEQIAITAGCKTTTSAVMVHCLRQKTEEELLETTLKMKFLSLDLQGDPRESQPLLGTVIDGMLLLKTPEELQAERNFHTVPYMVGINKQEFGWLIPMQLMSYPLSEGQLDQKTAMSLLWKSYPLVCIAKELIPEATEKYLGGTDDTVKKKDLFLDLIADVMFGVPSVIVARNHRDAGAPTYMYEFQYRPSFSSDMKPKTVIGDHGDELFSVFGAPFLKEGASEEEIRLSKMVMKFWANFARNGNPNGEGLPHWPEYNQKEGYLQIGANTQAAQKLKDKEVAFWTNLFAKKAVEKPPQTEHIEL
Method: as §1

SMILES	Number of metabolites identified in human urine samples ([1]; 17 human urine samples, conjugate cleavage, ref Haschimi et al.)	Number of metabolites identified in blood and urine samples ([1]; four blood and four urine samples, ref Krotulski et al.)	Survival rate ([2]; 0.01 μM, larvae 4 dpf) [%]	Survival rate ([2]; 0.1 μM, larvae 4 dpf) [%]	Survival rate ([2]; 1 μM, larvae 4 dpf) [%]	Survival rate ([2]; 10 μM, larvae 4 dpf) [%]	Survival rate ([2]; 50 μM, larvae 4 dpf) [%]	Survival rate ([2]; 100 μM, larvae 4 dpf) [%]	Concentration considered non-toxic for zebrafish larvae (4 dpf) ([2]; 24 h exposure via medium) [µM]	Malformations ([2]; up to 100 μM, larvae 4 dpf, 24 h)	Monooxygenases involved in the metabolic phase I reactions [3]	Detection of metabolite in incubation with hCES1c [4]	Detection of metabolite in incubation with hCES1b [5]
COC(=O)C(NC(=O)c1nn(CCCCF)c2ccccc12)C(C)(C)C (centres unmarked) [4F-MDMB-BINACA, methyl 2-[1-(4-fluorobutyl)-1H-indazole-3-carbonyl]amino-3,3-dimethylbutanoate]	13	nine	100	100	100	100	73	53	25	No malformations	CYP1A2, CYP2C8, CYP2C19, CYP3A4, and CYP3A5		
CC(C)(C)C(NC(=O)c1nn(CCCCF)c2ccccc12)C(=O)O (centres unmarked) [MB8]												+	
O=C(O)c1nn(CCCCF)c2ccccc12 [MB1]												+	–
